Data: patent US20100041617A1, “Modulating mxa expression” (priority 2004, published 2010)

Legend:
Type in all cases: cell-based, human
[1] = tested on: MxA promoter; assay: MxA promoter-luciferase reporter screen in stably transfected PC-3M cells; settings: for Fold Increase in MxA Expression: MxA promoter-luciferase reporter in PC-3M cells, Control = 1.00; for expression of luciferase from the MxA promoter: PC-3M cells, DTP 1900 chemotype library screen, FIG. 8
Text: FIG. 7 outlines the high-throughput screen used for identifying small molecules that induce MxA expression. The MxA promoter was cloned upstream of luciferase, and transfected it into PC-3M human prostate carcinoma cells. A cell line that stably expressed this promoter-reporter construct was isolated. This cell line was used for testing whether test agents could induce MxA expression by screening for increased luciferase expression using a library of 1900 chemotypes. Interferon-α was a positive control for this assay. To develop a reporter system for drug screening, particularly for a high throughput assay procedure, the MxA promoter was cloned upstream of a nucleic acid segment that encoded luciferase (see FIG. 7). A nucleic acid encoding a eukaryotic selection marker (neomycin) was also inserted in the vector used for the reporter cassette. After transfecting this construct into human prostate carcinoma cells, a cell line that stably maintained the MxA reporter gene was cloned. Test agents, including a library of small molecules (the DTP 1900 chemotype library) were screened to ascertain whether any of the test agents increased luciferase expression. Of the 1900 compounds tested, 5 compounds activated the MxA promoter and increased luciferase expression. […] Methods similar to those described in Example 4 were used to identify compounds that activate MxA expression.

[2] = tested on: MxA protein; assay: Induction of MxA protein expression in PC-3-M prostate cancer cells by compounds; settings: FIG. 9
Description: The five compounds that induced luciferase expression from the MxA were then tested to ascertain whether these compounds could also induce MxA protein expression and inhibit motility of PC-3-M prostate cancer cells. Each of the compounds could do so (FIGS. 9 and 10).

[3] = tested on: PC-3M cells; assay: Cell migration (motility) assay through pores of a PET membrane, PC-3M cells; settings: for motility of PC-3M cells: FIG. 10
Description: Effect of MxA on motility of PC-3M. […] It has been reported that type I IFN could reduce cell motility (Brouty-Boyé and Zetter, 1980), one component of metastasis. To test whether PC-3 and PC-3M cells differed in motility, these two cell lines were subjected to a cell migration assay that measured the ability of cells to migrate through pores in a polyethylene terephthalate (PET) membrane. The five compounds that induced luciferase expression from the MxA were then tested to ascertain whether these compounds could also induce MxA protein expression and inhibit motility of PC-3-M prostate cancer cells. Each of the compounds could do so (FIGS. 9 and 10).

[4] = tested on: MxA protein; assay: MxA protein induction by IFN-α, anti-MxA immunostaining, PC-3 cells; settings: 24 hours, 1000 international units of IFN-α per ml, FIG. 2A
Description: (§1) PC-3 (Figure A1-4) and PC-3M (FIG. 2B) cells were grown for 24 hours on cover slips in the presence or absence of 1000 international units of IFN-α ml^1. The cells were then fixed, permeabilized, stained with monoclonal anti-MxA and Cy-3-conjugated goat anti-mouse Ig antibody and counterstained with DAPI. Immunofluorescence was visualized with a Zeiss Axiophot microscope with a 40× objective, and the images were captured on an Optronics CCD camera.
(§2) Induction of MxA expression by interferon. To determine whether IFN-α can induce MxA expression in PC-3 and PC-3M cells, cells were treated with recombinant IFN-α and subjected to immunohistochemical analysis using anti-MxA antibody and DAPI nuclear counterstaining to locate individual cells (FIG. 2). Consistent with the western blot result, this assay detected MxA protein only in untreated PC-3 and not in untreated PC-3M cells (compare upper left panels in FIGS. 2A and 2B). […] Western blotting (not shown) confirmed the IFN did induce increased MxA protein expression in both cell lines.

[5] = tested on: MxA protein; assay: MxA protein induction by IFN-α, anti-MxA immunostaining, PC-3M cells; settings: 24 hours, 1000 international units of IFN-α per ml, FIG. 2B
Description: as §1, §2

[6] = tested on: PC-3 cells; assay: Cell migration (motility) assay through pores of a PET membrane, PC-3 cells; settings: 1000 IU ml^−1 IFN-α, FIG. 3A
Text: FIG. 3A graphically illustrates the motility of PC-3M and PC-3 cells, before and after exposure to 1000 IU ml^−1 IFN-α. Mean values of percent of control PC-3M mobility are shown as bar graphs with mean percentages indicated above each bar. Each value represents the mean of two independent triplicate determinations. Error bars show range of determinations.
Effect of MxA on motility of PC-3M. […] It has been reported that type I IFN could reduce cell motility (Brouty-Boyé and Zetter, 1980), one component of metastasis. To test whether PC-3 and PC-3M cells differed in motility, these two cell lines were subjected to a cell migration assay that measured the ability of cells to migrate through pores in a polyethylene terephthalate (PET) membrane.

Compound	Fold Increase in MxA Expression [1] [fold]	further results
CC(C)CCc1c(Cl)nc(Cl)nc1Cl [Compound 2]	1.03	–
O=S(=O)(c1cccc(N=C=S)c1)c1cccc(N=C=S)c1 [Compound 3]	1.11	–
CN1CCN(CCNc2ccc(CO)c3sc4ccccc4c(=O)c23)CC1 [Compound 4]	1.32	–
CCCS(=O)(=O)Nc1ccc(Nc2c3ccccc3nc3ccccc23)c(OC)c1.CS(=O)(=O)O [Compound 6]	3.65	–
Cc1cc(=O)oc2cc(OC(=O)Nc3ccc(Cl)c(Cl)c3)ccc12 [Compound 7]	1.18	–
COc1cc2c3c(n(C)c(=O)c2cc1OC)-c1cc2c(cc1C3=O)OCO2 [Compound 8]	1.71	–
COC1CC(C)C(OC)c2cc(O)cc(c2O)NC(=O)/C(C)=C\C=C/C(C)C(OC(N)=O)/C(C)=C\C(C)C1OC (stereo not drawn) [Compound 10]	0.40	–
CS(=O)(=O)CS(=O)(=O)OCCCl [Compound 11]	1.11	–
CO[C@H]1[C@H](O)[C@@H](O)[C@H](n2c3c(Cl)cccc3c3c4c(c5c6cccc(Cl)c6[nH]c5c32)C(=O)NC4=O)O[C@@H]1CO [Compound 12]	1.46	–
COc1cc2c(cc1OC)C1C(=O)c3cc(OS(C)(=O)=O)c(OC)cc3C1N(C)C2=O (stereo not drawn) [Compound 13]	2.15	–
CCN(CC)CCCNc1nccc2c(C)c3[nH]c4ccncc4c(=O)c3cc12 [Compound 15]	2.15	–
COC1C(O)C(C)OC(OC2C(Oc3cccc4c(O)c5c(=O)oc6ccc(C)c7c(=O)oc(c34)c5c67)OC(C)C3O[C@H](c4ccccc4)OC32)C1O (stereo partly drawn) [Compound 16]	2.25	–
N/N=C(/C(=O)Nc1cccc(Cl)c1)C(C(=O)c1ccc(O)cc1O)C1OC(=O)c2ccccc21 (stereo not drawn) [Compound 17]	1.05	–
Cc1cccc(NC(=O)C(=O)C(C2OC(=O)c3ccccc32)[N+](=O)[O-])c1C (stereo not drawn) [Compound 18]	0.79	–
O=c1c2cc(O)ccc2n2nnc3ccc(NCCNCCO)c1c32 [Compound 19]	2.08	–
COc1cc(C2C(Cl)C(=O)N2NC(=O)c2ccc(N)cc2)ccc1O (stereo not drawn) [Compound 20]	1.37	–
COc1cc(C2C(Cl)C(=O)N2NC(=O)c2ccc(N)cc2)cc(Br)c1O (stereo not drawn) [Compound 21]	1.64	–
Cc1c(C(=O)/C=C/c2c(Cl)cccc2Cl)c(=O)n(-c2ccccc2)n1C [Compound 22]	0.32	–
CN(CCCn1ccnc1[N+](=O)[O-])CCCn1ccnc1[N+](=O)[O-] [Compound 23]	1.28	–

Compound	Fold Increase in MxA Expression [1] [fold]	further results
C=[N+](CNC(=O)CNC(=O)C(Cc1ccc([N+](=O)[O-])cc1)NC(=O)OC(C)(C)C)C(=O)CNC(=O)C(Cc1ccc([N+](=O)[O-])cc1)NC(=O)OC(C)(C)C (stereo not drawn) [Compound 24]	0.84	–
CC(=O)C1=C(N=[N+]=[N-])c2cccc3cccc(c23)C1=O [Compound 26]	0.95	–
O=[N+]([O-])c1ccc(N2N=C(c3ccc4ccccc4c3O)CC2c2ccc(Cl)cc2Cl)c([N+](=O)[O-])c1 (stereo not drawn) [Compound 27]	2.25	–
O=C1CC(=O)NC(=NN2C(=O)CSC2c2ccc(Cl)cc2)N1 (stereo not drawn) [Compound 28]	1.40	–
CC(C)(Oc1ccc(Cl)cc1)C(=O)N(C(=O)N1CCCCC1)c1ccccc1 [Compound 29]	1.03	–
Cc1ccc2c(c1)C=CC1(O2)N(c2ccccc2)C(=S)OC1(C)C (stereo not drawn) [Compound 30]	0.85	–
CC1(C)OC(=S)N(c2ccccc2)C12C=Cc1cc3ccccc3cc1O2 (stereo not drawn) [Compound 31]	0.91	–
CCN(CC)CCNc1ccc2nnn3c4ccc(OC(C)=O)cc4c(=O)c1c23 [Compound 32]	2.64	–
CCOC(=O)[C@@H]1ON2O[C@H](OC3CCCCC3c3ccccc3)C[C@H]3OC(=O)[C@@H]1C32 (stereo partly drawn) [Compound 33]	1.03	–
CCOC(=O)c1cccc(NC(=O)CBr)c1 [Compound 34]	0.27	–
C=CC[C@H]1[C@H](O[Si](C)(C)C(C)(C)C)C=CC(=O)[C@@H]1CC(=O)OCC [Compound 35]	0.68	–
O=C1C(=C(C(=O)c2ccccc2)C(=O)c2ccccc2)OC(c2ccccc2)=C1C(=O)c1ccccc1 [Compound 36]	1.62	–
COC1C(O)C(C)OC(CCOC2C(Oc3cccc4c(O)c5c(=O)oc6ccc(C)c7c(=O)oc(c34)c5c67)OC(C)C(O)C2O)C1O (stereo not drawn) [NSC 5159, 10-{3-[2-(3,5-Dihydroxy-4-methoxy-6-methyl-tetrahydro-pyran-2-yl)-ethoxy]-4,5-dihydroxy-6-methyl-tetrahydro-pyran-2-yloxy}-6-hydroxy-1 methyl-benzo[h]chromeno[5,4,3-cde]chromene-5,12-dione]	–	expression of luciferase from the MxA promoter [1]: induce expression of luciferase; induction of MxA protein expression [2]: induce expression of MxA protein; motility of PC-3M cells [3]: decrease the motility
Cc1cc(Cc2cc(C)c(N)cc2N)c(N)cc1N [NSC 7215, methylene-bis(2,4-amino-5-methyl-benzene)]	–	expression of luciferase from the MxA promoter [1]: induce expression of luciferase; induction of MxA protein expression [2]: induce expression of MxA protein; motility of PC-3M cells [3]: decrease the motility
O=[N+]([O-])c1ccc(Nc2nc3ccccc3s2)cc1 [NSC 34444, benzothiazol-2-yl-(4-nitro-phenyl)-amine]	–	expression of luciferase from the MxA promoter [1]: induce expression of luciferase
COc1ccc2cc(COCCC(=O)O)ccc2c1 [NSC 46669, 3-(6-Methoxy-naphthalen-2-ylmethoxy)-propionic acid]	–	expression of luciferase from the MxA promoter [1]: induce expression of luciferase; induction of MxA protein expression [2]: induce expression of MxA protein; motility of PC-3M cells [3]: decrease the motility
O=C(O)c1ccc(Oc2nc3ccccc3s2)cc1 [NSC 122335, 4-(benzothiazol-2-yloxy)-benzoic acid]	–	expression of luciferase from the MxA promoter [1]: induce expression of luciferase; induction of MxA protein expression [2]: induce expression of MxA protein; motility of PC-3M cells [3]: decrease the motility
IFN-α	–	PC-3M cell motility ([3]; 1000 IU ml^−1 IFN-α, FIG. 3A): reduced PC-3M cell motility to a level comparable to that of PC-3 cells; level of MxA protein after exposure to IFN-α [4]: increased substantially; level of MxA protein after exposure to IFN-α [5]: became detectable for the first time; PC-3 cell motility [6]: reduced its motility to levels below that seen when no IFN was present
